In US10316293B2, “Methods for producing single pluripotent stem cells and differentiation thereof” (LifeScan, Inc., priority 2007, dated 2019):

Assays:
H1 passage 37 hES cells = assay: Passage of hES cells directly from MEF feeders to MATRIGEL with enzymes; assay type: cell-based, human
Protocol: In an effort to move to a feeder free culture of hES cells from a feeder based culture, H1 passage 37 hES cells that had been supported by a MEF feeder layer in hESC media and grown for 5 days on 10 cm^2 wells of 6 well plates were passaged. The cells were passaged with either TrypLE™, Accutase™, or 1 mg/ml of collagenase.
Before adding enzyme to the cells, the spent media was aspirated, 1 ml PBS (no Ca^2+, or Mg^2+) was added to each well, was aspirated again, and then 1 ml of room temperature enzyme (collagenase, Accutase™, or TrypLE™) was added. Accutase™ or TrypLE™ were used at stock concentration after reaching room temperature. Collagenase was removed from −80° C. freezer, thawed, mixed with 9 ml DMEM/F12, sterile filtered, and allowed to reach room temperature before use.
The cells were incubated in enzyme at 37° C. for 10 min. […] One ml of 2% Probumin in DMEM-F12 was added to each well and the combined total volume in the well was transferred to a 50 ml sterile conical tube, making sure to lift and suspend as many cells as possible.
The cells were centrifuged for 5 minutes at 200×g followed by an additional wash with 2% Probumin and centrifugation for 5 minutes at 200×g. Cell were then resuspended in MEF conditioned media and plated at a 1 to 3.5 ratio onto MATRIGEL™ (1:30 dilution in DMEM) coated T25 flasks, and placed in a 37° C., 5% CO2, humidified incubator.
Cell number was calculated by counting with an Improved Neubauer hemocytomer. […] Given a 1 to 3.5 split ratio, we plated the Accutase treated cells at a seeding density of 2.72 million cells/T25flask or 108,000 cells/cm^2, the TrypLE™ treated cells at a seeding density 2.65 million cells/T25flask or 105,000 cells/cm^2. It is assume that Collagenase treated wells were seeded at a similar density (105,000 to 108,000 cells/cm^2), since there was no appreciable difference in hES density from well to well before enzyme treatment. An additional flask was plated with Collagenase lifted cells for counting purposes at the next passage.
Cells were maintained for 4 days with daily changes of MEF conditioned media supplemented with […] of bFGF. After 4 days in culture the cultures were confluent, and the single cell treated hES cells formed monolayers of hES cells with occasional pockets of fibroblasts, while the cluster passaged hES cells formed large colony style clusters of hES cells (FIG. 13). These cells were then passaged again.
As previously described, the cells were incubated in enzyme at 37° C. for 10 min. […] The additional collagenase flask was lifted with Accutase™. The single cells were then with an Improved Neubauer hemocytometer.
Two ml of 2% Probumin in DMEM-F12 was then added to each flask after enzyme incubation, the total volume (˜4 ml) from the flask was pipetted up and down 5-10 times in order to suspend as many cells as possible. The suspension was then transferred to a 50 ml conical tube and centrifuged for 5 min at 200×g. Cells were then resuspended in MEF conditioned media supplemented with […] of bFGF, and then plated to T25 flasks precoated with 1:30 MATRIGEL™ at a ratio of 1:4.
Given that the cells were passaged at a 1:4 ratio, the cells were plated at a density of 58,000 cell/cm^2 for Accutase™ passage, 51,000 cell/cm^2 for TrypLE™ passage, and 35,000 cell/cm^2.
Cells were then grown for an additional 6 days, with daily media change of MEF conditioned media supplemented with 16 ng/ml of bFGF.

[1] = tested on: Human embryonic stem cells H9p33; assay: Cell releasing enzyme panel: passage of hES cell clusters as single cells, recovered cells counted with trypan blue; assay type: cell-based; details: for CELL NUMBER: recovered cells/well after three days on MATRIGEL, reseeded at 200,000 cells/well (collagenase: clusters, 30 minute incubation, 1:5 dilution)
Protocol: Human embryonic stem cells H9p33 cells grown in clusters in a 6 well dish were incubated with the following enzymes; TrypLE™ Express (stable tryspin-like enzyme (Invitrogen (Carlsbad, Calif.)), TrypLE™ Select (animal origin-free trypsin-like enzyme Invitrogen (Carlsbad, Calif.)), trypsin/EDTA (0.05%), or trypsin (0.25%), for two minutes at 36° C. All enzymes released the cells within two minutes except trypsin. Release with trypsin was achieved after five minutes at 36° C. Cells were reseeded at 200,000 cells/well into a 6 well plate coated with MATRIGEL™ and allowed to expand for three days. Human embryonic stem cells were also passed as clusters with collagenase (30 minute incubation) and reseeded at a 1:5 dilution on MATRIGEL™-coated wells, similar to the counted TrypLE™ Express cells. After three days, the hESC were released by a five minute incubation with TrypLE™ Express. Cells were incubated with 0.01% trypan blue and then counted (Table 1). Cell viability immediately after release was greater than 98% for all enzymes tested. Passage of human embryonic stem cells with collagenase is the standard passaging method. […] TrypLE™ Select and TrypLE™ Express were the best enzymes evaluated and were further tested in a time course experiment, Example 3.

hES H9scp18 = assay: Definitive endoderm differentiation of hES single cells in 96 well plates, IN Cell 1000 cell number and Sox17 staining; assay type: cell-based, human; details: 10 ng/ml Wnt3a, with 100 ng/ml Activin A, 0.5% FBS, two days; 40 wells
Protocol: hES H9scp18 were seeded into Packard View 96-well plates (Perkin-Elmer) coated with 1:30 growth factor reduced MATRIGEL™ at a density of 14,000 cells/cm^2. The cells were grown for three to four days in MEF conditioned medium and then treated using a DE differentiation protocol. A subset of 40 wells was treated with a standard protocol (10 ng/ml Wnt3a, 100 ng/ml Activin A, and 0.5% FBS in DMEM:F12 for two days). A second subset of 40 wells was treated with the GSK3b inhibitor IX (100 nM; EMD Chemicals, La Jolla, Calif.) instead of Wnt3a. This was followed by treatment for both subsets for three days with 100 ng/ml Activin A and 2% FBS in DMEM:F12. At the end of culture, cells were fixed with 4% paraformaldehyde at room temperature for 20 minutes, washed three times with PBS, and stored in 100 ul PBS overnight. Cells were permeabilized with 0.5% Triton X-100 (Sigma-Aldrich), either at room temperature for 20 minutes or at 4° C. for five minutes, then washed three times with PBS and blocked with 4% chicken serum (Invitrogen-Gibco, Carlesbad, Calif.) in PBS for 30 minutes at room temperature. […]

[2] = T25 flask on 1:30 MATRIGEL, MEF conditioned media

Molecule | density after four days in culture (H1 passage 37 hES cells; [2]) | density after four days in culture, cells total (H1 passage 37 hES cells; [2]) [million cells total] | growth and morphology after two passages (H1 passage 37 hES cells; additional 6 days on MATRIGEL after second passage) | lifting of cells from the dish (H1 passage 37 hES cells; first passage from MEF feeders, 10 min at 37° C.) | density of lifted cells (H1 passage 37 hES cells; first passage from MEF feeders, hemocytometer count) | lifting of cells from plastic and MATRIGEL (H1 passage 37 hES cells; second passage, 10-minute treatment at 37° C.) | CELL NUMBER [1] | time to release the cells ([1]; 36° C.) | recovered cell counts / maintaining cell attachment/growth (in words) ([1]; after three days culture, compared with collagenase) | number of cell nuclei per well (hES H9scp18)
Collagenase | 138,000 cell/cm^2 | 3.45 | form large colonies of dense and homogeneous cells | did not lift cells | not countable by hemocytometer | did not lift cells | 3.5 10^5 | – | – | –
TRYPSIN | – | – | – | – | – | – | 0.1 10^5 | five | significantly less effective at maintaining cell attachment/growth | –
Wnt3a: Wnt3a (R&D Systems), 10 ng/ml in the definitive endoderm protocol (protein, UniProt P56704 19-352, looked up) Protein Wnt-3a: SYPIWWSLAVGPQYSSLGSQPILCASIPGLVPKQLRFCRNYVEIMPSVAEGIKIGIQECQHQFRGRRWNCTTVHDSLAIFGPVLDKATRESAFVHAIASAGVAFAVTRSCAEGTAAICGCSSRHQGSPGKGWKWGGCSEDIEFGGMVSREFADARENRPDARSAMNRHNNEAGRQAIASHMHLKCKCHGLSGSCEVKTCWWSQPDFRAIGDFLKDKYDSASEMVVEKHRESRGWVETLRPRYTYFKVPTERDLVYYEASPNFCEPNPETGSFGTRDRTCNVSSHGIDGCDLLCCGRGHNARAERRREKCRCVFHWCCYVSCQECTRVYDVHTCK | – | – | – | – | – | – | – | – | – | highest number of cell nuclei per well with little variability between wells
